Source: ChEMBL document CHEMBL3044607, “Quantitative structureactivity relationships of imidacloprid and its analogs with substituents at the C5 position on the pyridine ring in the neuroblocking activity” (J Pestic Sci, 2006)

tested on: Periplaneta americana; assay: Insecticidal activity against Periplaneta americana (American cockroach) assessed as neuroblocking concentration; assay type: functional

Row | SMILES | log(1/BC)
1 | O=[N+]([O-])/N=C1\NCCN1Cc1cnc(Cl)c(Br)c1 | 5.51
2 | O=[N+]([O-])/N=C1\NCCN1Cc1cnc(Cl)c(I)c1 | 5.3
3 | COc1cc(CN2CCN/C2=N\[N+](=O)[O-])cnc1Cl | 4.98
4 | CCOc1cc(CN2CCN/C2=N\[N+](=O)[O-])cnc1Cl | 4.66
5 | CCCOc1cc(CN2CCN/C2=N\[N+](=O)[O-])cnc1Cl | 4.56
6 | CC(C)Oc1cc(CN2CCN/C2=N\[N+](=O)[O-])cnc1Cl | 4.46
7 | CCCCOc1cc(CN2CCN/C2=N\[N+](=O)[O-])cnc1Cl | 4.58
8 | CCCCCOc1cc(CN2CCN/C2=N\[N+](=O)[O-])cnc1Cl | 3.59
9 | Cc1cc(CN2CCN/C2=N\[N+](=O)[O-])cnc1Cl | 5.25
10 | CCc1cc(CN2CCN/C2=N\[N+](=O)[O-])cnc1Cl | 4.66
11 | CCCc1cc(CN2CCN/C2=N\[N+](=O)[O-])cnc1Cl | 4.51
12 | CCCCc1cc(CN2CCN/C2=N\[N+](=O)[O-])cnc1Cl | 3.79
13 | O=[N+]([O-])/N=C1\NCCN1Cc1cnc(Cl)c(-c2ccccc2)c1 | 4.46
14 | O=[N+]([O-])/N=C1\NCCN1Cc1cnc(Cl)c(C(F)(F)F)c1 | 4.43
15 | COC(=O)c1cc(CN2CCN/C2=N\[N+](=O)[O-])cnc1Cl | 3.92
16 | N#Cc1cc(CN2CCN/C2=N\[N+](=O)[O-])cnc1Cl | 4.59
17 | O=[N+]([O-])/N=C1\NCCN1Cc1cnc(Cl)c([N+](=O)[O-])c1 | 3.6
18 | [N-]=[N+]=Nc1cc(CN2CCN/C2=N\[N+](=O)[O-])cnc1Cl [5-AZIDOIMIDACLOPRID] | 4.98
19 | O=[N+]([O-])/N=C1\NCCN1Cc1cnc(Cl)c(Cl)c1 [5-CHLOROIMIDACLOPRID] | 5.61
20 | O=[N+]([O-])/N=C1/NCCN1Cc1cnc(Cl)c(F)c1 [5-FLUOROIMIDACLOPRID] | 5.99
21 | O=[N+]([O-])/N=C1\NCCN1Cc1ccc(Cl)nc1 [IMIDACLOPRID] | 5.7
